Assay results: patent US20120122896A1, “2,1,3-BENZOXADIAZOL DERIVATIVES FOR THE INHIBITION OF INFLUENZA A AND B VIRUS AND RESPIRATORY SYNCYTIAL VIRUS REPLICATION” (PIKE PHARMA GMBH, priority 2009, published 2012)
Like-named read-outs stand apart in the source and are kept apart here.

Legend:
[1] = target: interaction between PB1 and PA (Influenza A virus, UniProt P03433); assay: biochemical; assay type: binding
[2] = tested on: influenza virus (A/WSN/33); assay: plaque reduction assay, influenza virus in MDCK cells; assay type: cell-based
RSV (Long strain) = assay: RSV induced cell death reduction in HEp-2 cells; assay type: cell-based, respiratory syncytial virus; details: serial dilution 100 to 0.14 μM, 72 h
HA-tagged PA from FluB = assay: competitive ELISA, PB1 peptide / PA of FluB; assay type: binding, influenza B virus; details: competitor peptides 0.048 to 3000 nM; […]; standard deviation in parenthesis; * highest concentration used

Compound | IC50 (HA-tagged PA from FluB) [nM] | IC50 (HA-tagged PA of FluA; read-out: IC50 (nM) PA (FluA)) [nM] | further results
Nc1nc(Sc2ccc([N+](=O)[O-])c3nonc23)c2ncn(C3OC(CO)C(O)C3O)c2n1 (stereo not drawn) [PKE138, 2-[2-amino-6-[(4-nitro-2,1,3-benzoxadiazol-7-yl)sulfanyl]purin-9-yl]-5-(hydroxymethyl)oxolane-3,4-diol] |  |  | IC50 ([1]; calculated from inhibition at maximum obtainable concentration where solubility too low, read-out: IC50 [μM] (ELISA)): 250 µM; Active in ELISA ([1]; prescreening): Yes; inhibition of the replication of influenza virus, particularly influenza A (summary in words) [2]: effectively inhibited; RSV activity, Maximum inhibition (in words) (RSV (Long strain)): inactive
MDVNPFLLFLKVPAQ [PB11-15 AT5F] | 750 | 2.84 | 
MDVNPTLLFLK [Compound 1-11] |  |  | IC50 (HA-tagged PA of FluA; read-out: IC50 (nM) of FluA-derived PB1 peptides (truncations)): 900 nM
MDVNPTLLFLKVPAQ [PB11-15 A] | > 3000 |  | 
MDVNPWLLFLKVPAQ [PB11-15 AT6W] | 628 | 3.4 | 
MDVNPYLLFLKVPAQ [PB11-15 AT5Y] | 107 | 21.6 | 
